# Assay results reported in US20220175781A1, “CD40L COMPOSITIONS AND METHODS FOR TUNABLE REGULATION” (Obsidian Therapeutics, Inc., priority 2019, published 2022).
# Like-named read-outs stand apart in the source and are kept apart here.
# B1: OT-001965: ER regulated CD40L construct with varied linker length (protein)
# chain: MSLALSLTADQMVSALLDAEPPILYSEYDPTRPFSEASMMGLLTNLADRELVHMINWAKRVPGFVDLTLHDQVHLLECAWMEILMIGLVWRSMEHPGKLLFAPNLLLDRDQGKCVEGGVEIFDMLLATSSRFRMMNLQGEEFVCLKSIILLNSGVYTFLSSTLKSLEEKDHIHRVLDKITDTLIHLMAKAGLTLQQQHQRLAQLLLILSHIRHMSNKRMEHLYSMKCKNVVPLSDLLLEMLDAHRLGSGMIETYNQTSPRSAATGLPISMKIFMYLLTVFLITQMIGSALFAVYLHRRLDKIEDERNLHEDFVFMKTIQRCNTGERSLSLLNCEEIKSQFEGFVKDIMLNKEETKKENSFEMQKGDQNPQIAAHVISEASSKTTSVLQWAEKGYYTMSNNLVTLENGKQLTVKRQGLYYIYAQVTFCSNREASSQAPFIASLCLKSPGRFERILLRAANTHSSAKPCGQQSIHLGGVFELQPGASVFVNVTDPSQVSHGTGFTSFGLLKL
# Legend:
# T cells (CD4 and CD8) = test: Cleavage resistant CD40L expression and TMP regulation in T cells; assay type: cell-based
# Experimental: T cells were transduced with OT-001668 and on day 4, the percentage of CD40L expressing T cells (within the both CD4 and CD8) subpopulations was calculated.
# T cells were transduced with ecDHFR regulated construct OT-001671 that include a CD40L protein that was resistant to cleavage. On day 4 cells were treated with 10 μM TMP for 24 hours. […] In an independent experiment, T cells transduced with varying volumes of virus corresponding to OT-001671 were treated with increasing doses of TMP for 24 hours. In Table 41, 0.5 μL, 2 μL, and 10 μL indicate the different volumes of virus that were used.
# Jurkat cells [1] = conditions: Jurkat cells expressing OT-001662; for Off kinetics (CD40L surface expression, FACS): induced with TMP 50 μM
# Experimental: Kinetics were tested using stably transduced Jurkat cells expressing OT-001662. To study the kinetics of turning on the expression of CD40L, cells were treated with TMP (5 or 50 μM) and fixed for FACS after: 0, 3, 6, 9, 24, 48 hours. At the end of the experiment all fixed were stained and analyzed via FACS in parallel. To study the kinetics of turning off expression, expression was first induced in Jurkat cells with 50 μM TMP. The cells were then washed to remove TMP and fixed after 0, 3, 6, 9, 24 hours, stained and analyzed via FACS in parallel.
# Jurkat cells [2] = test: Linker length, ER regulated CD40L, % CD40L positive Jurkat cells; assay type: cell-based
# Experimental: Jurkat cells were lentivirally transduced and 24 hours after transduction were treated with DMSO or 1 μM Bazedoxifene for another 24 hours and analyzed by flow cytometry for surface expression of CD40L. […] In Table 33, SR indicates stabilization ratio.
molecule,measurement,setting,value
COc1cc(Cc2cnc(N)nc2N)cc(OC)c1OC [TMP],TMP dose response (percentage of CD40L positive cells),"T cells (CD4 and CD8); CD4+, 0.5 μL virus OT-001671, TMP 0.001 μM",17.9%
same,TMP dose response (percentage of CD40L positive cells),"T cells (CD4 and CD8); CD4+, 0.5 μL virus OT-001671, TMP 0.01 μM",18.8%
same,TMP dose response (percentage of CD40L positive cells),"T cells (CD4 and CD8); CD4+, 0.5 μL virus OT-001671, TMP 0.1 μM",20.4%
same,TMP dose response (percentage of CD40L positive cells),"T cells (CD4 and CD8); CD4+, 0.5 μL virus OT-001671, TMP 1 μM",20.3%
same,TMP dose response (percentage of CD40L positive cells),"T cells (CD4 and CD8); CD4+, 0.5 μL virus OT-001671, TMP 10 μM",27.5%
same,TMP dose response (percentage of CD40L positive cells),"T cells (CD4 and CD8); CD4+, 2 μL virus OT-001671, TMP 0.001 μM",11.8%
same,TMP dose response (percentage of CD40L positive cells),"T cells (CD4 and CD8); CD4+, 2 μL virus OT-001671, TMP 0.01 μM",12.2%
same,TMP dose response (percentage of CD40L positive cells),"T cells (CD4 and CD8); CD4+, 2 μL virus OT-001671, TMP 0.1 μM",14.9%
same,TMP dose response (percentage of CD40L positive cells),"T cells (CD4 and CD8); CD4+, 2 μL virus OT-001671, TMP 1 μM",17.6%
same,TMP dose response (percentage of CD40L positive cells),"T cells (CD4 and CD8); CD4+, 2 μL virus OT-001671, TMP 10 μM",30%
same,TMP dose response (percentage of CD40L positive cells),"T cells (CD4 and CD8); CD4+, 10 μL virus OT-001671, TMP 0.001 μM",4.74%
same,TMP dose response (percentage of CD40L positive cells),"T cells (CD4 and CD8); CD4+, 10 μL virus OT-001671, TMP 0.01 μM",6.79%
same,TMP dose response (percentage of CD40L positive cells),"T cells (CD4 and CD8); CD4+, 10 μL virus OT-001671, TMP 0.1 μM",7.65%
same,TMP dose response (percentage of CD40L positive cells),"T cells (CD4 and CD8); CD4+, 10 μL virus OT-001671, TMP 1 μM",17.2%
same,TMP dose response (percentage of CD40L positive cells),"T cells (CD4 and CD8); CD4+, 10 μL virus OT-001671, TMP 10 μM",43.7%
same,TMP dose response (percentage of CD40L positive cells),"T cells (CD4 and CD8); CD8+, 0.5 μL virus OT-001671, TMP 0.001 μM",0.59%
same,TMP dose response (percentage of CD40L positive cells),"T cells (CD4 and CD8); CD8+, 0.5 μL virus OT-001671, TMP 0.01 μM",0.56%
same,TMP dose response (percentage of CD40L positive cells),"T cells (CD4 and CD8); CD8+, 0.5 μL virus OT-001671, TMP 0.1 μM",0.45%
same,TMP dose response (percentage of CD40L positive cells),"T cells (CD4 and CD8); CD8+, 0.5 μL virus OT-001671, TMP 1 μM",0.43%
same,TMP dose response (percentage of CD40L positive cells),"T cells (CD4 and CD8); CD8+, 0.5 μL virus OT-001671, TMP 10 μM",2.44%
same,TMP dose response (percentage of CD40L positive cells),"T cells (CD4 and CD8); CD8+, 2 μL virus OT-001671, TMP 0.001 μM",0.6%
same,TMP dose response (percentage of CD40L positive cells),"T cells (CD4 and CD8); CD8+, 2 μL virus OT-001671, TMP 0.01 μM",0.59%
same,TMP dose response (percentage of CD40L positive cells),"T cells (CD4 and CD8); CD8+, 2 μL virus OT-001671, TMP 0.1 μM",0.88%
same,TMP dose response (percentage of CD40L positive cells),"T cells (CD4 and CD8); CD8+, 2 μL virus OT-001671, TMP 1 μM",1.29%
same,TMP dose response (percentage of CD40L positive cells),"T cells (CD4 and CD8); CD8+, 2 μL virus OT-001671, TMP 10 μM",5.57%
same,TMP dose response (percentage of CD40L positive cells),"T cells (CD4 and CD8); CD8+, 10 μL virus OT-001671, TMP 0.001 μM",1.18%
same,TMP dose response (percentage of CD40L positive cells),"T cells (CD4 and CD8); CD8+, 10 μL virus OT-001671, TMP 0.01 μM",0.89%
same,TMP dose response (percentage of CD40L positive cells),"T cells (CD4 and CD8); CD8+, 10 μL virus OT-001671, TMP 0.1 μM",0.95%
same,TMP dose response (percentage of CD40L positive cells),"T cells (CD4 and CD8); CD8+, 10 μL virus OT-001671, TMP 1 μM",2.87%
same,TMP dose response (percentage of CD40L positive cells),"T cells (CD4 and CD8); CD8+, 10 μL virus OT-001671, TMP 10 μM",12.4%
same,"On kinetics (CD40L surface expression, FACS)","Jurkat cells [1]; TMP 5 μM, 0 hours",743
same,"On kinetics (CD40L surface expression, FACS)","Jurkat cells [1]; TMP 5 μM, 3 hours",886
same,"On kinetics (CD40L surface expression, FACS)","Jurkat cells [1]; TMP 5 μM, 6 hours",1096
same,"On kinetics (CD40L surface expression, FACS)","Jurkat cells [1]; TMP 5 μM, 9 hours",1392
same,"On kinetics (CD40L surface expression, FACS)","Jurkat cells [1]; TMP 5 μM, 24 hours",2435
same,"On kinetics (CD40L surface expression, FACS)","Jurkat cells [1]; TMP 50 μM, 0 hours",743
same,"On kinetics (CD40L surface expression, FACS)","Jurkat cells [1]; TMP 50 μM, 3 hours",890
same,"On kinetics (CD40L surface expression, FACS)","Jurkat cells [1]; TMP 50 μM, 6 hours",1180
same,"On kinetics (CD40L surface expression, FACS)","Jurkat cells [1]; TMP 50 μM, 9 hours",1466
same,"On kinetics (CD40L surface expression, FACS)","Jurkat cells [1]; TMP 50 μM, 24 hours",3952
same,"Off kinetics (CD40L surface expression, FACS)",Jurkat cells [1]; 0 hours after wash,3952
same,"Off kinetics (CD40L surface expression, FACS)",Jurkat cells [1]; 3 hours after wash,1631
same,"Off kinetics (CD40L surface expression, FACS)",Jurkat cells [1]; 6 hours after wash,1620
same,"Off kinetics (CD40L surface expression, FACS)",Jurkat cells [1]; 9 hours after wash,1037
same,"Off kinetics (CD40L surface expression, FACS)",Jurkat cells [1]; 24 hours after wash,1287
B1,Percent of Jurkat cells expressing CD40L,Jurkat cells [2]; 1 μM Bazedoxifene,27%
same,SR,"Jurkat cells [2]; 1 μM Bazedoxifene versus DMSO, % CD40L positive Jurkat cells",9
same,Percent of Jurkat cells expressing CD40L,Jurkat cells [2]; DMSO,3%
